In PubChem BioAssay AID686936 (Broad Institute, 2013):

System: LuxO (D47E) transcriptional regulator, Vibrio cholerae O395
Assay: PubChem AID 686936
Settings: stronger effect = lower value
[1] = PK/LDH coupled NADH A340, at 100 µM
[2] = PK/LDH coupled NADH A340, rate, at 1 µM
[3] = PK/LDH coupled NADH A340, rate, at 25 µM

SMILES	ATPase rate (delta OD340/min) [1]	ATPase rate (delta OD340/min) [2]	ATPase rate (delta OD340/min) [3]
O=C(Nc1nnc(-c2ccc3c(c2)OCCO3)o1)C1CCCCC1	0.0424	0.0644	0.0279
Cc1ccc2cc3c(NC(=O)c4ccco4)nn(C)c3nc2c1	0.00981	0.0527	0.0182
